Measurements published in US9212163B2, “Pesticidal compositions and processes related thereto” (Dow AgroSciences LLC, priority 2012, dated 2015).

System: Beet Armyworm (BAW) (Spodoptera exigua)
Test: Bioassay on Beet Armyworm (BAW), 128-well diet tray assay
Format: in vivo
Details: Table 3: Assay Results Part 1
Experimental: Certain molecules disclosed in this document were tested against BAW, CEW and CL using procedures described in the following examples. In the reporting of the results, the “BAW & CEW & CL Rating Table” was used (See Table Section).
Bioassays on BAW (Spodoptera exigua)
Bioassays on BAW were conducted using a 128-well diet tray assay. One to five second instar BAW larvae were placed in each well (3 mL) of the diet tray that had been previously filled with 1 mL of artificial diet to which 50 μg/cm^2 of the test compound (dissolved in 50 μL of 90:10 acetone-water mixture) had been applied (to each of eight wells) and then allowed to dry. Trays were covered with a clear self-adhesive cover, and held at 25° C., 14:10 light-dark for five to seven days. Percent mortality was recorded for the larvae in each well; activity in the eight wells was then averaged. The results are indicated in the tables entitled “Table 3: Assay Results Part 1” and “Table 4: Assay Results Part 2” (See Table Section).

Row | SMILES | BAW Rating
1 | Cc1cc(/C=C/C(c2cc(Cl)cc(Cl)c2)C(F)(F)F)ccc1C(=O)NCc1ccc(Cl)nc1 (stereo not drawn) [AC7] | A (50-100)
2 | Cc1cc(/C=C/C(c2cc(Cl)cc(Cl)c2)C(F)(F)F)ccc1C(=O)NCc1ccccc1F (stereo not drawn) [AC9] | A (50-100)
3 | Cc1cc(/C=C/C(c2cc(Cl)cc(Cl)c2)C(F)(F)F)ccc1C(=O)NC1CSC1 (stereo not drawn) [AC10] | A (50-100)
4 | Cc1cc(/C=C/C(c2cc(Cl)cc(Cl)c2)C(F)(F)F)ccc1C(=O)NCc1ccccc1 (stereo not drawn) [AC11] | A (50-100)
5 | Cc1cc(/C=C/C(c2cc(Cl)cc(Cl)c2)C(F)(F)F)ccc1C(=O)NCc1ccccn1 (stereo not drawn) [AC12] | A (50-100)
6 | Cc1cc(/C=C/C(c2cc(Cl)cc(Cl)c2)C(F)(F)F)ccc1C(=O)NC1CS(=O)(=O)C1 (stereo not drawn) [AC13] | A (50-100)
7 | Cc1cc(/C=C/C(c2cc(Cl)cc(Cl)c2)C(F)(F)F)ccc1C(=O)NCc1cnc(Cl)s1 (stereo not drawn) [AC15] | A (50-100)
8 | Cc1cc(/C=C/C(c2cc(Cl)cc(Cl)c2)C(F)(F)F)ccc1C(=O)NC(C)(C)c1ccccn1 (stereo not drawn) [AC16] | A (50-100)
9 | Cc1cc(/C=C/C(c2cc(Cl)cc(Cl)c2)C(F)(F)F)ccc1C(=O)NNc1ccccc1F (stereo not drawn) [AC17] | A (50-100)
10 | Cc1cc(/C=C/C(c2cc(Cl)cc(Cl)c2)C(F)(F)F)ccc1C(=O)NCc1ncccn1 (stereo not drawn) [AC18] | A (50-100)
11 | Cc1cc(/C=C/C(c2cc(Cl)cc(Cl)c2)C(F)(F)F)ccc1C(=O)NCc1ccoc1 (stereo not drawn) [AC20] | A (50-100)
12 | Cc1cc(/C=C/C(c2cc(Cl)c(Cl)c(Cl)c2)C(F)(F)F)ccc1C(=O)NCc1ccc(Cl)nc1 (stereo not drawn) [AC22] | A (50-100)
13 | Cc1cc(/C=C/C(c2cc(Cl)c(Cl)c(Cl)c2)C(F)(F)F)ccc1C(=O)NC1CSC1 (stereo not drawn) [AC23] | A (50-100)
14 | Cc1cc(/C=C/C(c2cc(Cl)c(Cl)c(Cl)c2)C(F)(F)F)ccc1C(=O)NCc1cnc(Cl)s1 (stereo not drawn) [AC26] | A (50-100)
15 | Cc1cc(/C=C/C(c2cc(Cl)c(Cl)c(Cl)c2)C(F)(F)F)ccc1C(=O)NC(C)(C)c1ccccn1 (stereo not drawn) [AC27] | A (50-100)
16 | O=C(NCc1ccc(Cl)nc1)c1ccc(/C=C/C(c2cc(Cl)c(Cl)c(Cl)c2)C(F)(F)F)cc1Cl (stereo not drawn) [AC28] | A (50-100)
17 | O=C(NC1CSC1)c1ccc(/C=C/C(c2cc(Cl)c(Cl)c(Cl)c2)C(F)(F)F)cc1Cl (stereo not drawn) [AC29] | A (50-100)
18 | O=C(NC1CS(=O)(=O)C1)c1ccc(/C=C/C(c2cc(Cl)c(Cl)c(Cl)c2)C(F)(F)F)cc1Cl (stereo not drawn) [AC30] | A (50-100)
19 | O=C(NCc1ccc(Cl)nc1)c1ccc(/C=C/C(c2cc(Cl)c(Cl)c(Cl)c2)C(F)(F)F)cc1Br (stereo not drawn) [AC31] | A (50-100)
20 | O=C(NC1CSC1)c1ccc(/C=C/C(c2cc(Cl)c(Cl)c(Cl)c2)C(F)(F)F)cc1Br (stereo not drawn) [AC32] | A (50-100)
21 | O=C(NC1CS(=O)(=O)C1)c1ccc(/C=C/C(c2cc(Cl)c(Cl)c(Cl)c2)C(F)(F)F)cc1Br (stereo not drawn) [AC33] | A (50-100)

Row | SMILES | BAW Rating
22 | O=C(NC1CSC1)c1ccc(/C=C/C(c2cc(Cl)c(Cl)c(Cl)c2)C(F)(F)F)cc1C(F)(F)F (stereo not drawn) [AC34] | A (50-100)
23 | O=C(NC1CS(=O)(=O)C1)c1ccc(/C=C/C(c2cc(Cl)c(Cl)c(Cl)c2)C(F)(F)F)cc1C(F)(F)F (stereo not drawn) [AC35] | A (50-100)
24 | O=C(NCc1ccc(Cl)nc1)c1ccc(/C=C/C(c2cc(Cl)c(Cl)c(Cl)c2)C(F)(F)F)cc1C(F)(F)F (stereo not drawn) [AC36] | A (50-100)
25 | Cc1cc(/C=C/C(c2ccc(Cl)c(Cl)c2)C(F)(F)F)ccc1C(=O)NCc1ccc(Cl)nc1 (stereo not drawn) [AC37] | A (50-100)
26 | Cc1cc(/C=C/C(c2cc(Cl)c(F)c(Cl)c2)C(F)(F)F)ccc1C(=O)NCc1ccc(Cl)nc1 (stereo not drawn) [AC38] | A (50-100)
27 | Cc1cc(/C=C/C(c2cc(Cl)cc(Cl)c2)C(F)(F)F)ccc1C(=O)NCc1cncnc1 (stereo not drawn) [AC39, 4-((E)-3-(3,5-Dichlorophenyl)-4,4,4-trifluorobut-1-enyl)-2-methyl-N-((pyrimidin-5-yl)methyl)benzamide] | A (50-100)
28 | Cc1cc(/C=C/C(c2cc(Cl)cc(Cl)c2)C(F)(F)F)ccc1C(=O)NCC(=O)NC1CC1 (stereo not drawn) [AC40] | A (50-100)
29 | Cc1cc(/C=C/C(c2cc(Cl)cc(Cl)c2)C(F)(F)F)ccc1C(=O)NCC(=O)NC1CSC1 (stereo not drawn) [AC41] | A (50-100)
30 | Cc1cc(/C=C/C(c2cc(Cl)cc(Cl)c2)C(F)(F)F)ccc1C(=O)NCc1nc2ccccc2s1 (stereo not drawn) [AC42] | A (50-100)
31 | Cc1cc(/C=C/C(c2cc(Cl)cc(Cl)c2)C(F)(F)F)ccc1C(=O)NCc1cnccn1 (stereo not drawn) [AC43] | A (50-100)
32 | Cc1cc(/C=C/C(c2cc(Cl)cc(Cl)c2)C(F)(F)F)ccc1C(=O)NN(C)c1ccccc1F (stereo not drawn) [AC45] | A (50-100)
33 | Cc1cc(/C=C/C(c2cc(Cl)cc(Cl)c2)C(F)(F)F)ccc1C(=O)NCc1ccc(Cl)cc1 (stereo not drawn) [AC48] | A (50-100)
34 | O=C(NCc1ccc(Cl)nc1)c1ccc(/C=C/C(c2cc(Cl)cc(Cl)c2)C(F)(F)F)cc1F (stereo not drawn) [AC49] | A (50-100)
35 | Cc1cc(/C=C/C(c2cc(Cl)cc(Cl)c2)C(F)(F)F)ccc1C(=O)NCc1nccn1C (stereo not drawn) [AC50] | A (50-100)
36 | Cc1cc(/C=C/C(c2cc(Cl)cc(Cl)c2)C(F)(F)F)ccc1C(=O)NCC(=O)N(C)CC(F)(F)F (stereo not drawn) [AC51] | A (50-100)
37 | Cc1cc(/C=C/C(c2cc(Cl)c(F)c(Cl)c2)C(F)(F)F)ccc1C(=O)NC1CCOCC1 (stereo not drawn) [AC52] | A (50-100)
38 | Cc1cc(/C=C/C(c2cc(Cl)c(F)c(Cl)c2)C(F)(F)F)ccc1C(=O)NCc1ccc(Cl)cn1 (stereo not drawn) [AC53] | A (50-100)
39 | Cc1cc(/C=C/C(c2cc(Cl)c(F)c(Cl)c2)C(F)(F)F)ccc1C(=O)NCc1ccnc(Cl)c1 (stereo not drawn) [AC54] | A (50-100)
40 | CC(C)(C)OC(=O)CNC(=O)c1ccc(/C=C/C(c2cc(Cl)c(Cl)c(Cl)c2)C(F)(F)F)cc1Br (stereo not drawn) [AC58] | A (50-100)
41 | Cc1cc(/C=C/C(c2cc(Cl)cc(Cl)c2)C(F)(F)F)ccc1C(=O)Nc1ccc(Cl)nc1 (stereo not drawn) [AC59] | A (50-100)
42 | O=C(NC1CSC1)c1ccc(/C=C/C(c2cc(Cl)cc(Cl)c2)C(F)(F)F)cc1F (stereo not drawn) [AC61] | A (50-100)

Row | SMILES | BAW Rating
43 | O=C(CNC(=O)c1ccc(/C=C/C(c2cc(Cl)cc(Cl)c2)C(F)(F)F)cc1F)NCC(F)(F)F (stereo not drawn) [AC62] | A (50-100)
44 | O=C(NCc1ccc(Cl)nc1)c1ccc(/C=C/C(c2cc(Cl)c(F)c(Cl)c2)C(F)(F)F)cc1Br (stereo not drawn) [AC63] | A (50-100)
45 | O=C(CNC(=O)c1ccc(/C=C/C(c2cc(Cl)c(Cl)c(Cl)c2)C(F)(F)F)cc1Cl)NCC(F)(F)F (stereo not drawn) [AC64, (E)-2-Chloro-N-(2-oxo-2-((2,2,2-trifluoroethyl)amino)ethyl)-4-(4,4,4-trifluoro-3-(3,4,5-trichlorophenyl)but-1-en-1-yl)benzamide] | A (50-100)
46 | O=C(NCc1ccc(Cl)nc1)c1ccc(/C=C/C(c2cc(Cl)c(F)c(Cl)c2)C(F)(F)F)cc1F (stereo not drawn) [AC65] | A (50-100)
47 | O=C(CNC(=O)c1ccc(/C=C/C(c2cc(Cl)c(Cl)c(Cl)c2)C(F)(F)F)cc1Br)NCC(F)(F)F (stereo not drawn) [AC66] | A (50-100)
48 | O=C(NC1CSC1)c1ccc(/C=C/C(c2cc(Cl)c(F)c(Cl)c2)C(F)(F)F)cc1F (stereo not drawn) [AC67] | A (50-100)
49 | O=C(CNC(=O)c1ccc(/C=C/C(c2cc(Cl)c(F)c(Cl)c2)C(F)(F)F)cc1F)NCC(F)(F)F (stereo not drawn) [AC68] | A (50-100)
50 | Cc1cc(/C=C/C(c2cc(Cl)c(F)c(Cl)c2)C(F)(F)F)ccc1C(=O)NCC(=O)NCC(F)(F)F (stereo not drawn) [AC69] | A (50-100)
51 | COc1cc(/C=C/C(c2cc(Cl)c(F)c(Cl)c2)C(F)(F)F)ccc1C(=O)NC1CSC1 (stereo not drawn) [AC71] | A (50-100)
52 | CCc1cc(/C=C/C(c2cc(Cl)c(F)c(Cl)c2)C(F)(F)F)ccc1C(=O)NCc1ccc(Cl)nc1 (stereo not drawn) [AC72] | A (50-100)
53 | O=C(NCc1ccc(C(F)(F)F)nc1)c1ccc(/C=C/C(c2cc(Cl)c(Cl)c(Cl)c2)C(F)(F)F)cc1Br (stereo not drawn) [AC75] | A (50-100)
54 | Cc1cc(/C=C/C(c2cc(Cl)c(F)c(Cl)c2)C(F)(F)F)ccc1C(=O)NCc1cc(Cl)ccn1 (stereo not drawn) [AC77] | A (50-100)
55 | Cc1cc(/C=C/C(c2cc(Cl)c(Cl)c(Cl)c2)C(F)(F)F)ccc1C(=O)NCC(=O)NCC(F)(F)F (stereo not drawn) [AC78] | A (50-100)
56 | O=C(CNC(=O)c1ccc(/C=C/C(c2cc(Cl)c(F)c(Cl)c2)C(F)(F)F)cc1Br)NCC(F)(F)F (stereo not drawn) [AC79, (E)-2-Bromo-4-(3-(3,5-dichloro-4-fluorophenyl)-4,4,4-trifluorobut-1-en-1-yl)-N-(2-oxo-2-((2,2,2-trifluoroethyl)amino)ethyl)benzamide] | A (50-100)
57 | CCc1cc(/C=C/C(c2cc(Cl)c(F)c(Cl)c2)C(F)(F)F)ccc1C(=O)NCC(=O)NCC(F)(F)F (stereo not drawn) [AC80] | A (50-100)
58 | Cc1cc(/C=C/C(c2cc(Cl)cc(Cl)c2)C(F)(F)F)ccc1C(=O)NCC(=O)NC1CS(=O)(=O)C1 (stereo not drawn) [AC81] | A (50-100)
59 | O=C(NC1CS(=O)(=O)C1)c1ccc(/C=C/C(c2cc(Cl)cc(Cl)c2)C(F)(F)F)cc1F (stereo not drawn) [AC83, (E)-4-(3-(3,5-Dichlorophenyl)-4,4,4-trifluorobut-1-en-1-yl)-N-(1,1-dioxidothietan-3-yl)-2-fluorobenzamide] | A (50-100)
60 | O=C(NC1CS(=O)(=O)C1)c1ccc(/C=C/C(c2cc(Cl)c(F)c(Cl)c2)C(F)(F)F)cc1F (stereo not drawn) [AC84] | A (50-100)
61 | COc1cc(/C=C/C(c2cc(Cl)c(F)c(Cl)c2)C(F)(F)F)ccc1C(=O)NC1CS(=O)(=O)C1 (stereo not drawn) [AC85] | A (50-100)
62 | CCc1cc(/C=C/C(c2cc(Cl)c(F)c(Cl)c2)C(F)(F)F)ccc1C(=O)NC1CS(=O)(=O)C1 (stereo not drawn) [AC86] | A (50-100)
63 | O=C(NC1C[S+]([O-])C1)c1ccc(/C=C/C(c2cc(Cl)c(F)c(Cl)c2)C(F)(F)F)cc1F (stereo not drawn) [AC87] | A (50-100)
